According to patent EP4620959A1, “CYCLIC COMPOUNDS USED AS MULTI-TARGET KINASE INHIBITORS AND PREPARATION METHOD THEREFOR” (Shanghai Institute of Organic Chemistry, Chinese Academy of …, priority 2022, dated 2024):
pIC50: −log10 of the molar value. One block for each compound: values may come before it.

How the values were obtained:
LRRK2 wt = LRRK2 wt (Homo sapiens, UniProt Q5S007); test: Kinase activity inhibition assay (ADP-Glo), LRRK2 wt; assay type: biochemical; conditions: for inhibition at 0.1 µM: read-out: LRRK2 wt inhibition rate at 100 nM, ATP 20 µM, compound at 100 nM
Method: (§1) The kinase activity inhibition assay was performed by ICE Bioscience (Beijing) using ADP-Glo and HTRF methods.
(§2) Table 1.1-1 ADP-Glo Buffer
(§3) Table 1.2-1 ADP-Glo Kinase and Substrate Formulation
(§4) SD is the standard error, and AVE is the average value. Table 2-1 LRRK2 Activity Inhibition Test Results

LRRK2 G2019S = LRRK2 G2019S (Homo sapiens, UniProt Q5S007, G2019S); test: Kinase activity inhibition assay (ADP-Glo), LRRK2 G2019S; assay type: biochemical; conditions: for inhibition at 0.1 µM: read-out: LRRK2 G2019S inhibition rate at 100 nM, ATP 100 µM, compound at 100 nM
Method: as §1, §2, §3, §4

FGFR4 N535K = FGFR4 N535K (Homo sapiens, UniProt P22455, N535K); test: Kinase activity inhibition assay (HTRF), FGFR4 N535K; assay type: biochemical; conditions: ATP 100 µM
Method: as §1
(§5) Table 1.2-2 HTRF Kinase and Substrate Formulation
(§6) • 1) 2×ATP/substrate solution and 2×kinase/metal ion solution were prepared using kinase reaction buffer; • 2) 20 nL (ADP-GLo) or 40 nL (HTRF) of compound dilution was transferred using Echo 655 onto a 384-well assay plate; after centrifugation, 2 µL of 2×kinase and metal ion solution were added to the 384-well assay plate, centrifuged at 1000 rpm for 1 min, and incubated at 25°C for 10 min; • 3) 2 µL of 2×substrate and ATP solution were added to the 384-well assay plate, centrifuged at 1000 rpm for 1 min, and incubated at 25°C for 60 min. • 4) 4 µL of ADP-Glo was transferred to the 384-well assay plate, entrifuged at 1000 rpm for 1 min, and incubated at 25°C for 40 min. • 5) 8 µL of detection solution was transferred to the 384-well assay plate, centrifuged at 1000 rpm for 1 min, and incubated at 25°C for 40 min. • 6) Luminescence signals was read using a multifunctional microplate reader.
as §4

FGFR4 = FGFR4 (Homo sapiens, UniProt P22455); test: Kinase activity inhibition assay (HTRF), FGFR4; assay type: biochemical; conditions: ATP 50 µM
Method: as §1, §5, §6, §4

FGFR1 = FGFR1 (Homo sapiens, UniProt P11362); test: Kinase activity inhibition assay (HTRF), FGFR1; assay type: biochemical; conditions: ATP 40 µM
Method: as §1, §5, §6, §4

KDR = KDR (Homo sapiens, UniProt P35968); test: Kinase activity inhibition assay (HTRF), KDR; assay type: biochemical; conditions: ATP 4 µM
Method: as §1, §5, §4

RET V804L = RET V804L (Homo sapiens, UniProt P07949, V804L); test: Kinase activity inhibition assay (HTRF), RET V804L; assay type: biochemical; conditions: ATP 5 µM
Method: as §1, §5, §6, §4

FGFR4 V550L = FGFR4 V550L (Homo sapiens, UniProt P22455, V550L); test: Kinase activity inhibition assay (ADP-Glo), FGFR4 V550L; assay type: biochemical; conditions: ATP 20 µM
Method: as §1, §2, §3, §4

FGFR3 V555M = FGFR3 V555M (Homo sapiens, UniProt P22607, V555M); test: Kinase activity inhibition assay (HTRF), FGFR3 V555M; assay type: biochemical; conditions: ATP 20 µM
Method: as §1, §5, §6, §4

TYRO3 = TYRO3 (Homo sapiens, UniProt Q06418); test: Kinase activity inhibition assay (HTRF), TYRO3; assay type: biochemical; conditions: ATP 0.5 µM
Method: as §1, §5, §4

FGFR2 V564F = FGFR2 V564F (Homo sapiens, UniProt P21802, V564F); test: Kinase activity inhibition assay (HTRF), FGFR2 V564F; assay type: biochemical; conditions: ATP 15 µM
Method: as §1, §5, §6, §4

FGFR3 K650M = FGFR3 K650M (Homo sapiens, UniProt P22607, K650M); test: Kinase activity inhibition assay (HTRF), FGFR3 K650M; assay type: biochemical; conditions: ATP 12 µM
Method: as §1, §5, §4

DYRK2 = DYRK2 (Homo sapiens, UniProt Q92630); test: Kinase activity inhibition assay (ADP-Glo), DYRK2; assay type: biochemical; conditions: ATP 5 µM
Method: as §1, §2, §3, §4

FGFR4 V550M = FGFR4 V550M (Homo sapiens, UniProt P22455, V550M); test: Kinase activity inhibition assay (HTRF), FGFR4 V550M; assay type: biochemical; conditions: ATP 60 µM
Method: as §1, §5, §4

[1] = Oral pharmacokinetic study in rats; conditions: rat, in vivo, 3 mg/kg, male SD rats, oral gavage, dose 3mpk, 1% MC
Method: Drug preparation: 1% MC was added to the compound, ground, and shaken uniformly. Samples were collected at 5 min, 15 min, 30 min, 1 h, 2 h, 4 h, and 8 h post-dose, followed by analysis using liquid chromatography-tandem mass spectrometry (LC-MS/MS). Table 3 PK Data of Selected Compounds

FLT1 = FLT1 (Homo sapiens, UniProt P17948); test: Kinase activity inhibition assay (ADP-Glo), FLT1; assay type: biochemical; conditions: ATP 50 µM
Method: as §1, §2, §3, §6, §4

FGFR3 = FGFR3 (Homo sapiens, UniProt P22607); test: Kinase activity inhibition assay (HTRF), FGFR3; assay type: biochemical; conditions: ATP 50 µM
Method: as §1, §5, §6, §4

FGFR2 = FGFR2 (Homo sapiens, UniProt P21802); test: Kinase activity inhibition assay (HTRF), FGFR2; assay type: biochemical; conditions: ATP 20 µM
Method: as §1, §5, §6, §4

FGFR3 V555L = FGFR3 V555L (Homo sapiens, UniProt P22607, V555L); test: Kinase activity inhibition assay (HTRF), FGFR3 V555L; assay type: biochemical; conditions: ATP 20 µM
Method: as §1, §5, §6, §4

FLT3 = FLT3 (Homo sapiens, UniProt P36888); test: Kinase activity inhibition assay (HTRF), FLT3; assay type: biochemical; conditions: ATP 2 µM
Method: as §1, §5, §6, §4

FLT4 = FLT4 (Homo sapiens, UniProt P35916); test: Kinase activity inhibition assay (HTRF), FLT4; assay type: biochemical; conditions: ATP 32 µM
Method: as §1, §5, §6, §4

FGFR1 V561M = FGFR1 V561M (Homo sapiens, UniProt P11362, V561M); test: Kinase activity inhibition assay (HTRF), FGFR1 V561M; assay type: biochemical; conditions: ATP 20 µM
Method: as §1, §5, §6, §4

FGFR2 V564I = FGFR2 V564I (Homo sapiens, UniProt P21802, V564I); test: Kinase activity inhibition assay (HTRF), FGFR2 V564I; assay type: biochemical; conditions: ATP 20 µM
Method: as §1, §5, §6, §4

FGFR2 N549H = FGFR2 N549H (Homo sapiens, UniProt P21802, N549H); test: Kinase activity inhibition assay (HTRF), FGFR2 N549H; assay type: biochemical; conditions: ATP 9 µM
Method: as §1, §5, §4

Sequence of LRRK2 G2019S (Q5S007 whole entry G2019S): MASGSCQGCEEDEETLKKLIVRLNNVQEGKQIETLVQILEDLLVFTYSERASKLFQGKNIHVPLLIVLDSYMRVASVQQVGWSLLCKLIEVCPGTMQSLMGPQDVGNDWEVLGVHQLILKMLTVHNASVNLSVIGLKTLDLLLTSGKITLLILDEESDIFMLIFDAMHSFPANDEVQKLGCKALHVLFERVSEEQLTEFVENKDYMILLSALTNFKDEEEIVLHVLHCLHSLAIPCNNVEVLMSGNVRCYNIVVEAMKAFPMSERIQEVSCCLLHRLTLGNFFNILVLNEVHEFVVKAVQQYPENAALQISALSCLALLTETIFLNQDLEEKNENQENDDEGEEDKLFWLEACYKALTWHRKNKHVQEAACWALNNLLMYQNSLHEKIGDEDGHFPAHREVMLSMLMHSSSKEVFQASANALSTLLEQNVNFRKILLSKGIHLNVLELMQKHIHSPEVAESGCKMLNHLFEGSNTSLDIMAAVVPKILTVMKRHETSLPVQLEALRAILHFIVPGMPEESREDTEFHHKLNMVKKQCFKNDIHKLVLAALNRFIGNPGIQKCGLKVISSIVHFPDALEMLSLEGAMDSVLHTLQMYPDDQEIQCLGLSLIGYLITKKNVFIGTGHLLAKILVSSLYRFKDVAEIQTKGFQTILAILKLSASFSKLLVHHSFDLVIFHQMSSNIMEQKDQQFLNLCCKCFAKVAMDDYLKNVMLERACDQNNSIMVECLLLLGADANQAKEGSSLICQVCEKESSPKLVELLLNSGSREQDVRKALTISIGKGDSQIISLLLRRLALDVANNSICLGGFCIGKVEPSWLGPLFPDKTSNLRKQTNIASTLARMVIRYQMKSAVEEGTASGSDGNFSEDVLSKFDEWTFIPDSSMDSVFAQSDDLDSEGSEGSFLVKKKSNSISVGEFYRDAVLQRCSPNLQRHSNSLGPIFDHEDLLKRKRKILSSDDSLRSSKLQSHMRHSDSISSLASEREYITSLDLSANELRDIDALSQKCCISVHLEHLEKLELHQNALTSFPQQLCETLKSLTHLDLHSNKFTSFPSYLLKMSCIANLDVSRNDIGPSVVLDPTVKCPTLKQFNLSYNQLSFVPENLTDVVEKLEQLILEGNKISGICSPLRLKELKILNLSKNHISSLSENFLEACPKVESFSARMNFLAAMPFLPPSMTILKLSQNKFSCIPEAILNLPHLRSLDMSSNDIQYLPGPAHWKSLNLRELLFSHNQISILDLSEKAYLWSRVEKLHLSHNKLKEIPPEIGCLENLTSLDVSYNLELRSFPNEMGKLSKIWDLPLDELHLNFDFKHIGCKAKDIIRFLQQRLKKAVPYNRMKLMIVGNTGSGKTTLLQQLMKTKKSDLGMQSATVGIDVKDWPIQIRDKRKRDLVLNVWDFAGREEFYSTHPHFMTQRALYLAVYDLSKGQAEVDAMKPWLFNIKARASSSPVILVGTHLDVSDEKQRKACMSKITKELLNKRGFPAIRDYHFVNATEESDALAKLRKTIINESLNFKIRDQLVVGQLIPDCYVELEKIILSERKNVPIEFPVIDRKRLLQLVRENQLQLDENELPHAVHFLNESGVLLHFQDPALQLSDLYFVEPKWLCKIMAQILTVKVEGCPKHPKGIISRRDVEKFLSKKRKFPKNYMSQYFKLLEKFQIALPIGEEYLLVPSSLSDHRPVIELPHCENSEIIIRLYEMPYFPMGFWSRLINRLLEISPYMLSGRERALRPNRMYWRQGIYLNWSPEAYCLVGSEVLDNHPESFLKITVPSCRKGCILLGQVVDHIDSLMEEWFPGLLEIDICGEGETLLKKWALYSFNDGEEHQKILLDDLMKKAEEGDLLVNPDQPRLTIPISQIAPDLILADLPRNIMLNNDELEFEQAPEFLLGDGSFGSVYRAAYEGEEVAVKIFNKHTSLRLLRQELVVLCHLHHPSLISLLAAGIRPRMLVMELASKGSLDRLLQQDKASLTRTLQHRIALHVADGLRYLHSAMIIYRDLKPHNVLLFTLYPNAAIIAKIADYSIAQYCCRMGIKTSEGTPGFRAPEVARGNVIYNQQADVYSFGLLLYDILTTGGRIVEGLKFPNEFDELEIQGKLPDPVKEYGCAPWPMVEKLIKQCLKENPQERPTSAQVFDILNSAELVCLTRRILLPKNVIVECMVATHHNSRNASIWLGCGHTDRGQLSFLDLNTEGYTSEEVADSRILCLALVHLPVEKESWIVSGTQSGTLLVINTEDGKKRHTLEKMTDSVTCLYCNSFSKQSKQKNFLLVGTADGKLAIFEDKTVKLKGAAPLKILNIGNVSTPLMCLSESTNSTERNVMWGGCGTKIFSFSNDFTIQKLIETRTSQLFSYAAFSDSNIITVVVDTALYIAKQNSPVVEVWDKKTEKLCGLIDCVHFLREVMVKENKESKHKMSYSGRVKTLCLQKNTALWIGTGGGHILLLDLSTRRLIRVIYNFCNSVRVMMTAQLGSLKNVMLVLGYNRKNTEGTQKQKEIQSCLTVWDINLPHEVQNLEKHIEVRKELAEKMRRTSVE
Sequence of LRRK2 wt (Q5S007 whole entry): as the sequence (Q5S007 whole entry G2019S) above, with S2019G counted along it
Sequence of FGFR4 (P22455 22-802): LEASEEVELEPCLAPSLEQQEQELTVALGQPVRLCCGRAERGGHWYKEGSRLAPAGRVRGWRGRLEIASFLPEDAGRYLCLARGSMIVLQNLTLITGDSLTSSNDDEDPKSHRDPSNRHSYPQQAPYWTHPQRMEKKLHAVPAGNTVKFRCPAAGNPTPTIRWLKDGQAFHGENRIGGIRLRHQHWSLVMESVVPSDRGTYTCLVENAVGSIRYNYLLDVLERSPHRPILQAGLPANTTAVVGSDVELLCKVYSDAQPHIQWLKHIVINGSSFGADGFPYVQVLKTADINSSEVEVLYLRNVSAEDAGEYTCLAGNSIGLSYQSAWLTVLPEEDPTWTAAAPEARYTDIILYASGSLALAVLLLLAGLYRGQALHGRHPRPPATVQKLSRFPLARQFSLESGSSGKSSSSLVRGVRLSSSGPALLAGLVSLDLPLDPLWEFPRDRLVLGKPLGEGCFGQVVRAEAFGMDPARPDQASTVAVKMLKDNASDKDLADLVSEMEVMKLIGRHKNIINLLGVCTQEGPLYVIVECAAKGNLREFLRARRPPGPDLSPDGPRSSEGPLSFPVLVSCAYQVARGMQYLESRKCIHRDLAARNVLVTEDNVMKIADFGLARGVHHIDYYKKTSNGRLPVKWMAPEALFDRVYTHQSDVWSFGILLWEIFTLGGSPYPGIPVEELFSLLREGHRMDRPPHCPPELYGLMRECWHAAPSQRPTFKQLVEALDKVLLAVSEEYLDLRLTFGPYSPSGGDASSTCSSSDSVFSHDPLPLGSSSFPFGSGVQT
Sequence of FGFR4 N535K (P22455 22-802 N535K): as the sequence (P22455 22-802) above, with N514K counted along it
Sequence of FGFR2 (P21802 22-821): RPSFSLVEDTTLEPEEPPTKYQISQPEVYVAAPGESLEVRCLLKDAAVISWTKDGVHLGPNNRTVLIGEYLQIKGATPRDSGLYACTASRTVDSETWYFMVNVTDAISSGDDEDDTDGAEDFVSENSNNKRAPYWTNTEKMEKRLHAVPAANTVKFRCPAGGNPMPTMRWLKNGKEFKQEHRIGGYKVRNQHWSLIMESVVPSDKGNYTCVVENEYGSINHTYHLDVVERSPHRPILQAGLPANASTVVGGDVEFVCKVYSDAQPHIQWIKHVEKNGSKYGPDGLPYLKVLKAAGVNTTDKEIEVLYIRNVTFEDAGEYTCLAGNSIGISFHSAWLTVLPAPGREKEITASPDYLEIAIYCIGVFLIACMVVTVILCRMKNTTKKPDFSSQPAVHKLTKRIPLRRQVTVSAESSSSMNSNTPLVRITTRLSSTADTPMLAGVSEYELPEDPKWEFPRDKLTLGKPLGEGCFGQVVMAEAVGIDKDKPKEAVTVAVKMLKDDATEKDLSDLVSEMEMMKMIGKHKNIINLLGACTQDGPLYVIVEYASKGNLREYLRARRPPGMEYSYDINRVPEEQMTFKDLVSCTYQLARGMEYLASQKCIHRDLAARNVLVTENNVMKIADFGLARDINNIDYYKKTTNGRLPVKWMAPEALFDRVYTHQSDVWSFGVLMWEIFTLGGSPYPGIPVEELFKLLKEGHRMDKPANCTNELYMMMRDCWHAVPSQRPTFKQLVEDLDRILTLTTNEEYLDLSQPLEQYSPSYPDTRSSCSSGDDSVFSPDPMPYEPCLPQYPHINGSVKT
Sequence of FGFR3 V555M (P22607 23-806 V555M): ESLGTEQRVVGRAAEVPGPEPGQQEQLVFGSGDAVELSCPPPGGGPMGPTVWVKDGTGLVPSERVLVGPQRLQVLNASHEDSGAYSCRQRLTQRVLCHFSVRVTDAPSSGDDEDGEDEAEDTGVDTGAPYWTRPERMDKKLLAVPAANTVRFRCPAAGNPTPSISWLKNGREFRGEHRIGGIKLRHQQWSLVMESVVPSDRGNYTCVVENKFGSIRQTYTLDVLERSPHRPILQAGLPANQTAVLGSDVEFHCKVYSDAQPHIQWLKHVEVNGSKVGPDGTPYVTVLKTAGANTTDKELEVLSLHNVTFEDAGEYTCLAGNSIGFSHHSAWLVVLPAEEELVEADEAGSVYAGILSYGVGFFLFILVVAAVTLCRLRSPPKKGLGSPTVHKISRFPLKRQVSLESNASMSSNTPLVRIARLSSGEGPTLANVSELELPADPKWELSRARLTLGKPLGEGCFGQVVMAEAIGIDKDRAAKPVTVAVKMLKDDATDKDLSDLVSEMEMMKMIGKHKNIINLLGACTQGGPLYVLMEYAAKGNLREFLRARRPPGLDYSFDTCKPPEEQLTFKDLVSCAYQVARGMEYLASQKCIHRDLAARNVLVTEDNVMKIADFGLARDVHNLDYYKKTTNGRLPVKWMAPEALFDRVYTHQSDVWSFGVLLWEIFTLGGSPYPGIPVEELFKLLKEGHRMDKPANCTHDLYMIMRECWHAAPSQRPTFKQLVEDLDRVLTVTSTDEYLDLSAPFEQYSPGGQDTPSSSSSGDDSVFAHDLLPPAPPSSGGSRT
Sequence of FGFR2 N549H (P21802 22-821 N549H): as the sequence (P21802 22-821) above, with N528H counted along it
Sequence of FGFR3 (P22607 23-806): as the sequence (P22607 23-806 V555M) above, with M533V counted along it
Sequence of FGFR3 K650M (P22607 23-806 K650M): as the sequence (P22607 23-806 V555M) above, with M533V, K628M counted along it

inhibition at 0.1 µM (LRRK2 wt): 94% | inhibition at 0.1 µM (LRRK2 G2019S): 92%
SMILES: CN1CCCNc2nc(ncc2C(F)(F)F)Nc2cn(nc2C2CC2)C2CC2C1=O (racemic) [Example T-10, (1^1R,1^2S,2^1R,E)-2^3-Cyclopropyl-9-methyl-4^5-(trifluoromethyl)-2^1H-3,5,9-triaza-4(2,4)-pyrimidina-2(1,4)-pyrazola-1(1,2)-cyclopropacyclodecan-10-one]

inhibition at 0.1 µM (LRRK2 wt): 89% | inhibition at 0.1 µM (LRRK2 G2019S): 90%
SMILES: O=C1NCCCNc2nc(ncc2C(F)(F)F)Nc2cn(nc2C2CC2)C2CC12 (racemic) [Example T-11, (1^1R,1^2R,2^1S,E)-2^3-Cyclopropyl-4^5-(trifluoromethyl)-2^1H-3,5,9-triaza-4(2,4)-pyrimidina-2(1,4)-pyrazola-1(1,2)-cyclopropacyclodecan-10-one]

inhibition at 0.3 µM (LRRK2 wt; read-out: LRRK2 wt inhibition rate @300 nM, ATP 20 µM, compound at 300 nM): 7% | inhibition at 0.1 µM (LRRK2 G2019S): 4.3%
SMILES: Cc1nn2cc1Nc1ncc3c(Cl)cn(c3n1)CCCN(C)C(=O)C2(C)C [Example T-7, (E)-1^5-Chloro-3^3,4,4,6-tetramethyl-1^7H,3^1H-2,6-diaza-1(2,7)-pyrrolo[2,3-d]pyrimidine-3(4,1)-pyrazolacyclononan-5-one]

Continued, compound first:

SMILES: C=CC(=O)N[C@H]1CCOC[C@H]1Nc1ncc2cc(-c3c(Cl)c(OC)cc(OC)c3Cl)ccc2n1 [BLU554]
pIC50 (FGFR4 N535K): 7.37 | pIC50 (FGFR4): 8.53

SMILES: CNc1nc(Nc2cn(C(C)(C)C#N)nc2C)ncc1C(F)(F)F [DNL-201]
pIC50 (LRRK2 wt; ATP 20 µM): 8.90 | pIC50 (LRRK2 G2019S; ATP 100 µM): 8.54

SMILES: Cc1nn2cc1Nc1ncc(C(F)(F)F)c(n1)NCCCNC(=O)C2(C)C [Example T-1, (E)-3^3,4,4-Trimethyl-15-(trifluoromethyl)-3^1H-2,6,10-triaza-1(2,4)-pyrimidina-3(4,1)-pyrazolacyclodecan-5-one]
pIC50 (FGFR1): 6.87 | pIC50 (KDR): 7.72 | pIC50 (RET V804L): 6.76 | pIC50 (FGFR4 V550L): 7.17 | pIC50 (FGFR3 V555M): 7.89 | pIC50 (TYRO3): 6.56 | pIC50 (FGFR2 V564F): 8.08 | pIC50 (FGFR3 K650M): 8.04 | pIC50 (DYRK2): 6.61 | pIC50 (FGFR4 V550M): 6.90 | Cmax [1]: 754 ng/mL | Tmax [1]: 1 h | half-life [1]: 2.3 h | AUC(0-t) at 8 h ([1]; read-out: AUC0-8): 3820 ng·h/mL | pIC50 (FLT1): 7.82 | pIC50 (FGFR4 N535K): 6.22 | pIC50 (FGFR3): 7.30 | pIC50 (FGFR2): 7.66 | pIC50 (FGFR3 V555L): 8.29 | pIC50 (FLT3): 6.43 | pIC50 (FLT4): 7.19 | pIC50 (FGFR1 V561M): 7.57 | pIC50 (FGFR2 V564I): 7.12 | pIC50 (FGFR4): 7.48 | pIC50 (FGFR2 N549H): 7.78

SMILES: Cc1nn2cc1Nc1ncc3c(Cl)cn(c3n1)CCCNC(=O)C2(C)C [Example T-6, (E)-1^5-Chloro-3^3,4,4-trimethyl-1^7H,3^1H-2,6-diaza-1(2,7)-pyrrolo[2,3-d]pyrimidine-3(4,1)-pyrazolacyclononan-5-one]
inhibition at 0.1 µM (LRRK2 wt): 92% | inhibition at 0.1 µM (LRRK2 G2019S): 88%
